One series relates to NMDA receptor. Kind of series: Inhibition of NMDA/glycine-induced increases in intracellular calcium in cultured rat cerebellar granule cells (RCGC). Particulars: NMDA/glycine-induced increases in intracellular calcium, cultured rat cerebellar granule cells; read-out: IC50 (μM) vs. NMDA. The class given is cell-based.
For series [1], the target named is NMDA receptor-ionophore complex (site labeled by [3H]MK-801). Kind of series: Inhibition of [3H]MK-801 binding in rat cortical/hippocampal washed membrane preparations. Particulars: read-out: IC50 (μM) vs. [3H]MK-801; rat cortical/hippocampal washed membranes.
A further series concerns T1, L-type calcium channel.
T1 construct: L-type calcium channel: estimated IC50, KCl depolarization-induced increases in intracellular calcium; other: cultured
Kind of series: Inhibition of KCl depolarization-induced increases in intracellular calcium in cultured rat cerebellar granule cells. Particulars: cultured rat cerebellar granule cells; read-out: L-type calcium channel: estimated IC50, KCl depolarization-induced increases in intracellular calcium. The class given is cell-based. The source says:
The ability of arylalkylamines to inhibit dihydropyridine-sensitive Ca^2+ channels was examined in cerebellar granule cells and a rat aortic smooth muscle cell line, A7r5 cells.

In series [2] the test system is central muscarinic cholinergic receptor. The class given is binding, rat.
Series [3] has as its target T2, norepinephrine uptake site (Rattus norvegicus, UniProt Q63380).
T2 construct: from tissue; host or cells: rat cortical membranes (per the assay title)
Kind of series: Norepinephrine uptake binding assay: [3H]desipramine binding to rat cortical membranes.

In a further series the target is T3, serotonin uptake site (Rattus norvegicus, UniProt P31652).
T3 construct: from tissue; host or cells: rat forebrain membranes (per the assay title)
Kind of series: Serotonin uptake binding assay: [3H]citalopram binding to rat forebrain membranes.

The next series has as its system focal ischemia. Kind of series: Photothrombotic (Rose Bengal) model of focal cerebral ischemia. The class given is in vivo, rat. The conditions noted are these: 10 mg/kg i.p. at 15 min, 3 hr, and again 6 hr post-occlusion. The text has this: In a third model of focal cerebral ischemia in the rat, an ischemic infarct was produced by a photothrombotic method using the dye Rose Bengal.

The next series relates to temporary focal ischemia. Kind of series: Temporary focal cerebral ischemia (middle cerebral artery occlusion, suture withdrawn after 2 hr). The class given is in vivo, rat. On the procedure:
In a fourth model of focal cerebral ischemia in the rat, the middle cerebral artery was temporarily occluded by passing a small piece of suture thread through the carotid artery to the region of the middle cerebral artery. The suture thread was withdrawn after an ischemic period of 2 hr. Core body temperature was maintained at 37° C. […]

In the next series the test system is sound-induced seizures. The series can be described thus: Sound-induced seizures in Frings mice (reflex epilepsy). The class given is in vivo. Particulars: Mus musculus, Frings mice.
Series [4] deals with maximal electroshock-induced seizures. The series can be described thus: Maximal electroshock-induced seizures in mice. The class given is in vivo. The conditions noted are these: Mus musculus, ip; mice. For orientation: Protection in the maximal electroshock model is a classic sign of anticonvulsant action.
The next series concerns seizure threshold. The series can be described thus: i.v. Metrazol test (seizure threshold) in mice. The class given is in vivo.
Another series can be described thus: in vivo. The conditions noted are these: mouse, in vivo. Here is the method:
(§1) In this assay, Frings and CF1 mice were injected with test compound and placed on a knurled rod which rotated at a speed of 6 rpm. The ability of the mice to maintain equilibrium for long periods of time was determined; those mice that were unable to maintain equilibrium on the rotorod for 1 min in each of 3 trials were considered impaired.

In another series the test system is focal ischemic stroke. The series can be described thus: Rat model of focal ischemic stroke (vessel occlusion). The conditions noted are these: i.p. 2 mg/kg 30 min prior to vessel occlusion and 2 mg/kg 3 hr post-occlusion. The class given is in vivo, rats.
Series [5] concerns behavior. Kind of series: Behavioral effects in conscious beagle dogs.
The subject of series [6] is mean arterial pressure, heart rate, ECG. The series can be described thus: Cardiovascular activity in conscious beagle dogs.
The subject of series [7] is behavior. Kind of series: Behavioral effects in conscious male Wistar rats.
The next series concerns the target T4, dopamine uptake site (Cavia porcellus, UniProt H0WCX4).
T4 construct: from tissue; host or cells: guinea pig striatal membranes (per the assay title)
Kind of series: Dopamine uptake binding assay: [3H]WIN-35,428 binding to guinea pig striatal membranes.

Series [8] concerns maximal electroshock-induced seizures. The series can be described thus: Maximal electroshock-induced seizures in rats. The class given is in vivo. The conditions noted are these: Rattus norvegicus, po, read-out: ED50, maximal electroshock-induced seizures.
For series [9], the system named is thermal nociception. The class given is in vivo, rats. Particulars: 25 mg/kg i.p. On the procedure: In these experiments, a 52° C. hot plate was used as the nociceptive stimulus.
The test system of series [10] is thermal nociception. The class given is in vivo, rats. Particulars: 25 mg/kg i.p. On the procedure:
In this standard assay, the thermal nociceptive stimulus was 52° C. warm water with the latency to tail flick or withdrawal taken as the endpoint.
This is another data set of the same source.

In a further series the test system is motor performance. Kind of series: Acute motor impairment (rotorod) in mice. Particulars: Frings mice, i.p. Here is the method:
as §1

The subject of series [11] is mean arterial blood pressure. The conditions noted are these: i.v.
Series [12] can be described thus: Motor toxicity (TD50) in rats. Particulars: rat, in vivo, po.
In a further series the test system is PBQ-elicited writhing. The class given is in vivo. The conditions noted are these: 4 mg/kg i.p. On the procedure:
In the first series of experiments, the animals were administered an unpleasant stimulus (2-phenyl-1,4-benzoquinone, PBQ) which elicits a writhing response (abdominal stretching). Typically, the number of writhes occurring in a 5 min observation period is recorded. […] Nonsteroidal antiinflammatory agents are likewise effective in this model.

The mark [13] stands for this setting: 3 mg/kg i.v. (60 sec bolus injection).
Where [14] appears, read: 10 mg/kg i.v. (60 sec bolus injection).

pIC50: −log10 of the molar value. Read-outs that look alike come from different tables or passages of the source.

Consider 3 compounds from patent US6750244B2, “Compounds active at a novel site on receptor-operated calcium channels useful for treatment of neurological disorders and diseases” (NPS Pharmaceuticals, Inc., priority 1993, dated 2004).

T2 sequence (Q63380 1-617): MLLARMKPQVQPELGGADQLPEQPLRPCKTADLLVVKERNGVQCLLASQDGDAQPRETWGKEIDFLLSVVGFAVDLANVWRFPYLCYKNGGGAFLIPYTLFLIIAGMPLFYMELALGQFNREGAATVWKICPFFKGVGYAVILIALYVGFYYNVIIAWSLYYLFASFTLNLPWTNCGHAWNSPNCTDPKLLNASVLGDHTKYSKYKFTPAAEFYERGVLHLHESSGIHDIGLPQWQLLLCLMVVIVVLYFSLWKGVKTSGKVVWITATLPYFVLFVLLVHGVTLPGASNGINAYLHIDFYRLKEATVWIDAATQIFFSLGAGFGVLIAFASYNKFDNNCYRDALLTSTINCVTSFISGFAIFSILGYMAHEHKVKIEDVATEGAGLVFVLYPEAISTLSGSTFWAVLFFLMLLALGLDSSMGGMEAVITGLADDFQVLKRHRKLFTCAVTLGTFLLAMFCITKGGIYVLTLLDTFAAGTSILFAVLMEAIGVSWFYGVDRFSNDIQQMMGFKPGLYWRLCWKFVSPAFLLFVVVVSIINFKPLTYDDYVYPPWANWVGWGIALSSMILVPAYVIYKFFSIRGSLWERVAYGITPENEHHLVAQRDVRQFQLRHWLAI
T3 sequence (P31652 whole entry): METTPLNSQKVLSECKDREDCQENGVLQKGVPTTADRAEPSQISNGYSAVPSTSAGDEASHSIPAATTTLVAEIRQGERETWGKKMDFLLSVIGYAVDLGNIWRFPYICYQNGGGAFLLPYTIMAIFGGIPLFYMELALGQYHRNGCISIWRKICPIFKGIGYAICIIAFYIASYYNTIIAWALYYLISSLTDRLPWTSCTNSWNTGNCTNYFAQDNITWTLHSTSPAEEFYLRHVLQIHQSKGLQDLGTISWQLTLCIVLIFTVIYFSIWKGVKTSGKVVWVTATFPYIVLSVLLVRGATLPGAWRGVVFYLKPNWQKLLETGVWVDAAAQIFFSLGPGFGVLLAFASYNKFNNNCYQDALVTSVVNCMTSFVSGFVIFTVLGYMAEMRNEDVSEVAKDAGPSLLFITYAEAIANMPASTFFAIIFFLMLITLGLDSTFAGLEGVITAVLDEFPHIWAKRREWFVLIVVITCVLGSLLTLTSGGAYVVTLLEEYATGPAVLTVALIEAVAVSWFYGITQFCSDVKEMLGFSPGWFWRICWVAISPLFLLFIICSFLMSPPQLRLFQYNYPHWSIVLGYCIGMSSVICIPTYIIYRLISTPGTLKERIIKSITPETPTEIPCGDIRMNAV
T4 sequence (H0WCX4 1-619): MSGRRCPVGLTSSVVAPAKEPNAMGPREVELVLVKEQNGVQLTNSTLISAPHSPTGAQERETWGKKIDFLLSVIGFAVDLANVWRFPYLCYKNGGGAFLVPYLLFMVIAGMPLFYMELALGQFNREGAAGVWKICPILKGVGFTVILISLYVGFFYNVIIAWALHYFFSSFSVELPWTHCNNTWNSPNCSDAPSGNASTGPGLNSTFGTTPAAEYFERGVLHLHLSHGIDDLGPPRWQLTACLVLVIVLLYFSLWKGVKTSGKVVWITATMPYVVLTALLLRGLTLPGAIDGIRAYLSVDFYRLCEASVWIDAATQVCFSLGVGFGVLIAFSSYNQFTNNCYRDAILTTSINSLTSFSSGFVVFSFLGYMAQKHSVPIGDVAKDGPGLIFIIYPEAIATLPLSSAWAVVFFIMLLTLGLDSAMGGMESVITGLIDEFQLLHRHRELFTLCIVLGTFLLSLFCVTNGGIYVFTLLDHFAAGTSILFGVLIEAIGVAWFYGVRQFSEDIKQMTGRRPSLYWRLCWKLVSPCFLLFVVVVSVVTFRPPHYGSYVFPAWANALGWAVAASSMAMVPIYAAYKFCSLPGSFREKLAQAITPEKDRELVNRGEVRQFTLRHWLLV

With `CNCCC(c1cccc(F)c1)c1cccc(F)c1` [Compound 60, N-methyl-3,3-bis(3-fluorophenyl)-1-propylamine], the IC50 (commonly the concentration at which inhibition is half-maximal) in the series on NMDA receptor is 0.416 µM; in series [1] it was 0.641 µM. Also, the pIC50 – broadly, the negative decadic logarithm of the IC50, by convention in mol/L – in the series on L-type calcium channel is 5.64; in [3] (read-out: Monoamine uptake binding assays: norepinephrine uptake binding assay, IC50), 6.04; at serotonin uptake site (read-out: Monoamine uptake binding assays: serotonin uptake binding assay, IC50), 7.17. In addition, the “Central muscarinic cholinergic receptor: percent block of [3H]QNB binding” value in series [2] (at 0.1 μM) was found to be 13% at; in series [2] (at 10 μM), 0.193% at. Moreover, the “Monoamine uptake binding assays: norepinephrine uptake binding assay, percent block” value in series [3] (at 0.1 μM) is 16%; in series [3] (at 10 μM), “at 0.1^g64%”. In addition, in the series on focal ischemia, the “neuroprotectant activity, photothrombotic model” value is “no significant neuroprotectant activity”. In addition, the “neuroprotectant activity in a rat model of temporary focal ischemic stroke” value in the series with temporary focal ischemia (i.p. or i.v. 1 mg/kg 2 hr and again 8 hr post-occlusion) is “significant neuroprotectant activity”; in the series with temporary focal ischemia (i.v. 1 mg/kg 2 hr post-occlusion), “significant neuroprotectant activity”. The ED50 (commonly the midpoint of the dose-response relation) with sound-induced seizures (ip) came out at 4.4 mg/kg; with sound-induced seizures (oral) it was 10 mg/kg; in [4] it was 8.17 mg/kg. For the same compound, the “seizure threshold, i.v. Metrazol test” value is “no effect on seizure threshold” in the series with seizure threshold (1 and 4 mg/kg i.p.); “a reduction in seizure threshold” with seizure threshold (8 and 17 mg/kg i.p.). Also, the TD50 in “in vivo” (Frings, ip) is 9.2 mg/kg; in the series “in vivo” (Frings, po), 25.6 mg/kg; in “in vivo” (ip) it was 17.3 mg/kg. Moreover, in the series with focal ischemic stroke, the “neuroprotectant activity in a rat model of focal ischemic stroke” value was “significant neuroprotectant activity”. For the same compound, the “dose without neuronal vacuolization” value in the series on neuronal vacuolization (i.p.) was found to be 20 mg/kg; with neuronal vacuolization (i.v.), 10 mg/kg. The behavioral effects result in the series with behavior [5] (setting [13]) was “a slight increase in respiratory rate”; in the series on behavior [5] (setting [14]) it was “dilated pupils, whole body tremors, salivation, and urination”; with behavior [5] (0.3 and 1 mg/kg i.v. (60 sec bolus injection)), “no significant behavioral effects”; with behavior [7] (16 mg/kg i.v.), “Straub tail, convulsions, and death”; in the series on behavior [7] (dose of a mg/kg i.v.), “excitation, stereotypies, increased reactivity to touch, increased muscle tone, and tremor”; with behavior [7] (doses up to 4 mg/kg i.v.), “no significant behavioral effects”. Further, the cardiovascular activity result in series [6] (0.3 mg/kg i.v. (60 sec bolus injection)) is reported as “no significant cardiovascular activity”. Also, the mean arterial pressure result was “transient increases in mean arterial pressure” in series [6] (1 mg/kg i.v. (60 sec bolus injection)); “transient increases in mean arterial pressure” in [6] (setting [13]); “larger magnitude and longer duration effects” in series [6] (setting [14]). Further, the heart rate entry in series [6] (setting [13]) and in series [6] (setting [14]) was “transient increases in heart rate” throughout. Also, the “changes in the ECG” value in [6] (doses up to 10 mg/kg i.v. (60 sec bolus injection)) is “no significant changes in the ECG”.
Turning to `C[C@H](N)CC(c1cccc(F)c1)c1cccc(F)c1` [Compound 50, 3,3-bis(3-fluorophenyl)-1-methyl-1-propylamine], the IC50 in the series on NMDA receptor was determined as 0.089 µM; in [1] it was 0.762 µM. Also, the “Central muscarinic cholinergic receptor: percent block of [3H]QNB binding” value is on record as 11% at in [2] (at 0.1 μM) and 0.184% at in series [2] (at 10 μM). The results for the “Monoamine uptake binding assays: dopamine uptake binding assay, percent block” value at dopamine uptake site (at 0.1 μM) and at dopamine uptake site (at 10 μM) were 17% at and 0.1^f93% at, respectively. Moreover, the results for the “Monoamine uptake binding assays: norepinephrine uptake binding assay, percent block” value in series [3] (at 0.1 μM) and in series [3] (at 10 μM) were 10% at and 0.1^g78% at, respectively. Moreover, the figures for the “Monoamine uptake binding assays: serotonin uptake binding assay, percent block” value at serotonin uptake site (at 0.1 μM) and on serotonin uptake site (at 10 μM) were 10^g75% at and 0.1^h97% at, respectively. The ED50 with sound-induced seizures (ip) came to 2.7 mg/kg; in the series on sound-induced seizures (oral), 9 mg/kg; in series [8], 28 mg/kg. The “analgesic activity, rat 52° C. hot plate test” value with thermal nociception [9] is given as “no significant analgesic activity”. For the same compound, the “analgesic activity, rat 48° C. tail flick test” value with thermal nociception [10] is listed as “no significant analgesic activity”. For the same compound, the TD50 in “in vivo” (Frings, po) came to 18.9 mg/kg; in series [12], 20 mg/kg. Besides, the “TD50 (motor impairment)” value in the series with motor performance came out at 17.4 mg/kg. Moreover, in the series on focal ischemic stroke, the “neuroprotectant activity in a rat model of focal ischemic stroke” value is “significant neuroprotectant activity”. Moreover, in series [11], the “no significant cardiovascular activity in anesthetized rats at doses up to” value was “up to 5 mg/kg”.
Turning to `CN1CC[C@]23c4c5ccc(O)c4O[C@H]2[C@@H](O)C=C[C@H]3[C@H]1C5` [morphine, reference compound], the “block of the writhing response” value with PBQ-elicited writhing was 100%.
